Columns and labels:
Assay in all cases: AUC of viability dose-response curve (% viability x log10 dose units); higher = less sensitive
Details in all cases: 48 h
NOMO1 = tested on: NOMO1
Procedure, shortened: (§1)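 Leukemia cells adapted to each medium were seeded in 1536-well plates (500 or 1000 cells/well). They were dosed with library compounds in DMSO at 11 threefold doses, 47 μM to 0.79 nM, for 48 h at 37°C. CellTiter-Glo One luminescence was normalised per plate to DMSO and cell-free wells. Area under the curve was integrated by trapezoidal rule over log10 doses on a four-parameter log-logistic fit; curves exceeding full viability were scaled and curves failing quality control removed.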

P12-Ichikawa = tested on: P12-Ichikawa
Procedure, shortened: as §1

SEM cells = tested on: SEM cells
Procedure, shortened: as §1

[1] = RPMI 5 mM glucose + 10% dialyzed FBS

Row | SMILES | AUC of viability dose-response curve (NOMO1; HPLM + 10% dialyzed FBS) | AUC of viability dose-response curve (NOMO1; RPMI 5 mM glucose + 10% FBS) | AUC of viability dose-response curve (NOMO1; [1]) | AUC of viability dose-response curve (P12-Ichikawa; HPLM + 10% dialyzed FBS) | AUC of viability dose-response curve (P12-Ichikawa; RPMI 5 mM glucose + 10% FBS) | AUC of viability dose-response curve (P12-Ichikawa; [1]) | AUC of viability dose-response curve (SEM cells; HPLM + 10% dialyzed FBS) | AUC of viability dose-response curve (SEM cells; RPMI 5 mM glucose + 10% FBS) | AUC of viability dose-response curve (SEM cells; [1])
1 | Cc1ncc(OC[C@@]2(c3cccc(F)c3)C[C@H]2C(=O)Nc2ccc(F)cn2)c(C)n1 | 476 | 474 | 464 | 455 | 474 | 470 | 444 | 435 | 452
2 | OCc1ccc(-c2nn(Cc3ccccc3)c3ccccc23)o1 | 385 | 425 | 405 | 442 | 464 | 459 | 369 | 346 | 347
3 | C[C@@H]1CN[C@H]2[C@@H](C)[C@@]\3(CC[C@H]\4[C@@H]5C/C=C6/C[C@@H](O)CC[C@]6(C)[C@H]5CC4=C3C)O[C@@H]2C1 | 449 | 460 | 451 | 454 | 441 | 449 | 460 | 462 | 469
4 | CC(=O)Nc1ccc([C@H](C)C(=O)Nc2ncc(C(C)C)s2)cc1 | 397 | 365 | 386 | 403 | 411 | 408 | 390 | 393 | 387
5 | Cc1cc(Nc2nc(N[C@@H](C)c3ncc(F)cn3)ncc2Cl)n[nH]1 | 363 | 408 | 422 | 421 | 454 | 425 | 399 | 336 | 365
6 | COc1cc2c(Oc3ccc(NC(=O)C4(C(=O)Nc5ccc(F)cc5)CC4)cc3F)ccnc2cc1OCCCN1CCOCC1 | 334 | 343 | 311 | 291 | 296 | 299 | 136 | 149 | 105
7 | CC1(C)CCC(=C(CN2CCN(CC2)C3=CC=C(C=C3)C(=O)N[S+]([O-])(=O)C4=CC(=C(N[C@H](CCN5CCOCC5)CSC6=CC=CC=C6)C=C4)[S+]([O-])(=O)C(F)(F)F)\C1)/C7=CC=C(Cl)C=C7 | 357 | 332 | 291 | 235 | 240 | 259 | 216 | 197 | 197
8 | CN(C)CCc1c[nH]c2ccc(C[C@H]3COC(=O)N3)cc12 | 423 | 433 | 449 | 405 | 409 | 411 | 384 | 340 | 381
9 | [NH2][Pt]([NH2])([Cl])[Cl] | 456 | 421 | 445 | 470 | 449 | 433 | 429 | 419 | 380
10 | C[N+]1(C)[C@@H]2C[C@@H](OC(=O)[C@H](CO)c3ccccc3)C[C@H]1[C@@H]1O[C@@H]12.[Br-] | 457 | 423 | 442 | 456 | 424 | 435 | 448 | 467 | 462
11 | C=CC1=C(C(=O)O)N2C(=O)[C@@H](NC(=O)/C(=N\O)c3csc(N)n3)[C@H]2SC1 | 467 | 438 | 462 | – | – | – | 397 | 435 | 433
12 | CC1=C(C=CC=C1)N2\C(=N/C3=C(C(=CC=C3)C)C2=O)C[N]4N=CC5=C4N=CN=C5N | 329 | 307 | 341 | 368 | 366 | 377 | 469 | 470 | 471
13 | CCOc1cc(N)c(Cl)cc1C(=O)NCC1CN(Cc2ccc(F)cc2)CCO1 (configuration not stated) | 464 | 470 | 460 | 467 | 467 | 469 | 419 | 467 | 466
14 | CC\1=C(C(=O)N(\C=C1)C2=CC=C(C=C2)C3=NC=CO3)/C4=CC5=CN=C(N)N=C5C=C4 | 470 | 456 | 472 | 472 | 467 | 465 | 383 | 387 | 350
15 | N=C(N)NC(=O)c1nc(Cl)c(N)nc1N | 364 | 342 | 365 | 389 | 393 | 430 | 446 | 464 | 453

Reference: the supplement of paper PMC11451515
